Results published in patent US4814432A, “Inhibitor of ribonucleotide reductase” (priority 1987, dated 1989).
pIC50: −log10 of the molar value. Where a SMILES comes first, the peptide text is derived from it. Where no end group is shown, it is not given here. [ ]: non-standard residue; d: D form. The star is where a group is joined. Desaminotyrosyl = O=C(CCc1ccc(O)cc1)*; NMeY = CN[C@@H](Cc1ccc(O)cc1)C(=O)O; Aib = CC(C)(N)C(=O)O; Ava = NCCCCC(=O)O

Columns and labels:
[1] = biological target: ribonucleotide reductase enzyme of herpes simplex virus (Human herpesvirus 1, UniProt P08543); conditions: Dutia et al. and Cohen et al., Nature 321 (1986); cited from earlier work
[2] = biological target: Herpes Simplex Virus Ribonucleotide Reductase (HSV RR) (Human herpesvirus 2, UniProt P89462); experiment: biochemical
Method: HSV RR was purified from Baby Hamster Kidney cells that were cultured with HSV2 Strain 186. After infection, cells were harvested and lysed. Crude HSV RR was prepared as described by Huszar et al., J. Virol. 37: 580-588(1981) then subjected to further purification by hydroxyapatite column chromotography.
HSV RR activity was determined as the ability of the enzyme to catalyze the reduction of tritiated cytidine-diphosphate to deoxyribo-cytidine-diphosphate in 30 minutes at 37° C. in the presence of dithiothreitol and MgCl2. Activity of oligopeptide inhibitors was determined by adding them to the reaction mix at the beginning of the incubation. Enzyme was not preincubated with inhibitor.
Oligopeptides were synthesized by either the solid phase method of Merrified, op. cit., or by FMOC chemistry (John Morrow Stewart and Janis Dillaha Young, "Solid Phase Peptide Synthesis," 2nd ed, 1984, Pierce Chemical Co., Rockford, IL.) and purified to >98% homogeneity by reverse phase HPLC and recovered by lyophilization as trifluoroacetic acid salts. These were analyzed for amino acid composition and in some cases sequenced. Dry peptides were resuspended in 100 mM HEPES (pH 8.0) at about 2 mM, relyophilized, and stored in aliquots at -80° C. Immediately prior to use they were rehydrated with distilled H2 O and centrifuged to remove any undissolved peptide. The concentrations of these stock solutions were then determined by measuring A291 nm at basic pH (ε=2.55) for tyrosine-containing peptides and by quantitative amino acid composition for those peptides without tyrosine.

[3] = biological target: T1, ribonucleotide reductase enzyme of herpes simplex virus (Human herpesvirus 1, UniProt P08543); conditions: Dutia et al. and Cohen et al., Nature 321 (1986); cited from earlier work; remark: listed apart in the source
T1 sequence (P08543 whole entry, looked up): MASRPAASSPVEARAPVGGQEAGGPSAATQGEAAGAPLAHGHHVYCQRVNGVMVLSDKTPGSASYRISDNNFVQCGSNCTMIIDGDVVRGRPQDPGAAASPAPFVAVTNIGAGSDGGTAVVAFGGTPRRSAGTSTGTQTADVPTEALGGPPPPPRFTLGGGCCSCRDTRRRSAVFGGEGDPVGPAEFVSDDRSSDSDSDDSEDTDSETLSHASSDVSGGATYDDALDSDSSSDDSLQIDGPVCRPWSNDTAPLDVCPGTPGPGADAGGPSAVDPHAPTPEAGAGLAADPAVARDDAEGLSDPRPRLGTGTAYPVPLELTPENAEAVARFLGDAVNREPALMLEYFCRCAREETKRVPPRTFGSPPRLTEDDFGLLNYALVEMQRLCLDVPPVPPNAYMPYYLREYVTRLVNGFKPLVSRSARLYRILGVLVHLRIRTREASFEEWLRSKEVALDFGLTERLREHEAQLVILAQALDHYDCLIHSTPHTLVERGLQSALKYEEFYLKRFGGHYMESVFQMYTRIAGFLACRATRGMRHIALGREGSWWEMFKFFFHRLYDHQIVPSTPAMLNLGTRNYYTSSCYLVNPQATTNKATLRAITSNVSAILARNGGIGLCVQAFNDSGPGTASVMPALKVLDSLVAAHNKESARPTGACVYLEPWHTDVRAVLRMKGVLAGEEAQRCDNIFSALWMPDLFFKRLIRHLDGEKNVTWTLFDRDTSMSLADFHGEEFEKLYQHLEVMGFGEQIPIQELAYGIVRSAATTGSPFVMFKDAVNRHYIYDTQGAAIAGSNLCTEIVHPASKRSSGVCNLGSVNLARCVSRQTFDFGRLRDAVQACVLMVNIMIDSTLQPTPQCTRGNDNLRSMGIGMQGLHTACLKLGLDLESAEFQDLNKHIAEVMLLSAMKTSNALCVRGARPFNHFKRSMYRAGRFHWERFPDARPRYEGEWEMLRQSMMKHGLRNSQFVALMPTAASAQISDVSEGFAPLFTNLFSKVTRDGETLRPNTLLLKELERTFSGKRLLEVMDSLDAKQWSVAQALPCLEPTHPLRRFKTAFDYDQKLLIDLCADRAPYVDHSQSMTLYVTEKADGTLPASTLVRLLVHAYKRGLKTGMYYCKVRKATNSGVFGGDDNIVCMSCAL

Herpes Simplex Virus Ribonucleotide Reductase (HSV RR), sequence (P89462 whole entry): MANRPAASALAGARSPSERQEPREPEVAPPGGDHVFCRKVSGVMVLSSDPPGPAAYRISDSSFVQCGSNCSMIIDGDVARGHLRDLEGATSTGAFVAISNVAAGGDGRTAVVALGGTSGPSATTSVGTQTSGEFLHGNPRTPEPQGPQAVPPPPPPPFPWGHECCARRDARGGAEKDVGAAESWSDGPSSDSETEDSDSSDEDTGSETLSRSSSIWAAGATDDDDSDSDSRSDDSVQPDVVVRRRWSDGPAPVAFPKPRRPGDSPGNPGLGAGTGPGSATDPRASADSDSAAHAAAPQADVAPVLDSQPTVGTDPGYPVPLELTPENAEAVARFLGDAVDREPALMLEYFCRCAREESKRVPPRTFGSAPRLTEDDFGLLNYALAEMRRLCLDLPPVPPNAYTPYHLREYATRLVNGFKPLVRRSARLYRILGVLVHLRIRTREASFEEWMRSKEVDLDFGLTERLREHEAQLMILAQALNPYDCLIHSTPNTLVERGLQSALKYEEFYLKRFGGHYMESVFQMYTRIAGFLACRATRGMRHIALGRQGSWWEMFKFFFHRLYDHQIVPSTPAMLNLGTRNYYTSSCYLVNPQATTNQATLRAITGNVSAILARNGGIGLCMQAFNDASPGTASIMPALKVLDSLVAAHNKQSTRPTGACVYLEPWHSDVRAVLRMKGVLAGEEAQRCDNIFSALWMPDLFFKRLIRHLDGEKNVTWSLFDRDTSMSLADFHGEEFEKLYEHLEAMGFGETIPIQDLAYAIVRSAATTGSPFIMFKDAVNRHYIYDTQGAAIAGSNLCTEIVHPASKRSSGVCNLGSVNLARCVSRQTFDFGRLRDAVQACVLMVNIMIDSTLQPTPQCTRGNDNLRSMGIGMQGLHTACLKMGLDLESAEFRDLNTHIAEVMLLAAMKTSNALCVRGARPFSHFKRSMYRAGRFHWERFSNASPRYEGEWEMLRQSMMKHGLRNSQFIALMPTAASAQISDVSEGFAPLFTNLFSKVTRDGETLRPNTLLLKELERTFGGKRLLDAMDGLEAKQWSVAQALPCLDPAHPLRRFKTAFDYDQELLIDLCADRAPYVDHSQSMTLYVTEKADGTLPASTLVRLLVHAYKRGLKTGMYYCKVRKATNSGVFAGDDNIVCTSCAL

Compound | pIC50 [2] | other results
Tyr Ala Gly Ala Val Val Asn Asp Leu | – | inhibition in vitro of enzyme activity [1]: inhibited
Ac-YVVNDL [AcY V V N D L] | 4.74 | –
YAGYVVNDL [Y A G Y V V N D L] | 5.10 | –
YVVNDL [Y V V N D L] | 4.82 | –
COc1ccc(C[C@H](N)C(=O)N[C@H](C(=O)N[C@H](C(=O)N[C@@H](CC(N)=O)C(=O)N[C@@H](CC(=O)O)C(=O)N[C@@H](CC(C)C)C(=O)O)C(C)C)C(C)C)cc1 [MeOY V V N D L] (H-Y(Me)VVNDL-OH) | 4.70 | –
YAAVVNDL [YAA V V N D L] | 3.95 | –
HVVNDL [H V V N D L] | 4.34 | –
FVVNDL [F V V N D L] | 4.19 | –
CC(C)C[C@H](NC(=O)[C@H](CC(=O)O)NC(=O)[C@H](CC(N)=O)NC(=O)[C@@H](NC(=O)[C@@H](NC(=O)[C@H](Cc1ccc(O)cc1)NC(=O)CCCCNC(=O)[C@@H](N)Cc1ccc(O)cc1)C(C)C)C(C)C)C(=O)O [YBY V V N D L] (H-Y[Ava]YVVNDL-OH) | 4.70 | –
CC(C)C[C@H](NC(=O)[C@H](CC(=O)O)NC(=O)[C@H](CC(N)=O)NC(=O)[C@@H](NC(=O)[C@@H](NC(=O)[C@H](C)NC(=O)CCc1ccc(O)cc1)C(C)C)C(C)C)C(=O)O [desNH2YA V V N D L] (Desaminotyrosyl-AVVNDL-OH) | 3.80 | –
YAPAVVNDL [Y A PA V V N D L] | 4.85 | –
KKLEEFLKVVNDL [K K L E E FLK V V N D L] | 3.70 | –
FAGAVVNDL [FA G A V V N D L] | 4.25 | –
AAAVVNDL [A AA V V N D L] | 4.11 | –
WVVNDL [W V V N D L] | 4.77 | –
AVVDDL [A V V D D L] | 3.71 | –
YGAVVNDL [8-desalanine homolog of the nonapeptide, Dutia et al] | – | inhibition in vitro of enzyme activity [3]: inhibited
CC(C)C[C@H](NC(=O)[C@H](CC(=O)O)NC(=O)[C@H](CC(N)=O)NC(=O)[C@@H](NC(=O)[C@@H](NC(=O)CCc1ccc(O)cc1)C(C)C)C(C)C)C(=O)O [desNH2Y V V N D L] | 4.62 | –
CC(C)C[C@H](NC(=O)[C@H](CC(=O)O)NC(=O)C(C)(C)NC(=O)[C@@H](NC(=O)[C@@H](NC(=O)[C@H](C)NC(=O)CNC(=O)[C@H](C)NC(=O)[C@@H](N)Cc1ccc(O)cc1)C(C)C)C(C)C)C(=O)O [Y A G A V V J D L] (H-YAGAVV[Aib]DL-OH) | 3.70 | –
CN[C@@H](Cc1ccc(O)cc1)C(=O)N[C@H](C(=O)N[C@H](C(=O)N[C@@H](CC(N)=O)C(=O)N[C@@H](CC(=O)O)C(=O)N[C@@H](CC(C)C)C(=O)O)C(C)C)C(C)C [MeNY V V N D L] (H-[NMeY]VVNDL-OH) | 4.92 | –
